This is an account of results in US20060204981A1, “Compositions for modulation of PARP and methods for screening for same” (priority 2005, published 2006).

In data set [1] the test system is E2F1 tet-inducible DLD1 cells. Nature of the data set: Apoptosis in E2F1 tet-inducible DLD1 cells. It counts as cell-based. An excerpt:
To investigate E2F1 induced apoptosis, an inducible system was established. Human colon cancer cell lines harboring a mutated p53 gene were used to generate E2F1-inducible cell lines (Rodrigues, et al., PNAS, 87:7555-9 (1990)). […] Under the tetracycline induction conditions, a significant percentage of DLD1 cells undergoing apoptosis were detected at a given time point (10% at day 3; 15% at day 4) as determined by propidium iodide (PI) staining and flow cytometry (FIG. 10B). The apoptosis was further confirmed by assaying morphological changes following expression of E2F1 (FIG. 10C). Similar data was obtained in E2F1-inducible SW480 human colon cancer cells. In addition to proapoptotic function, E2F1 is a necessary transcription factor for cell proliferation (Johnson, D. et al., Nature 365:349-52 (1993); Wu, L. et al. Nature 414:457-62 (2001)). Under these experimental conditions, no significant changes in overall cell cycle distribution were observed.
To further investigate the mechanism of E2F1-induced apoptosis, the role of caspase activation was investigated. Two forms of caspase-3, procaspase and cleaved caspase were detected by western blot analysis. […] Further, it was determined if E2F1-induced, p53 independent apoptosis was affected by inhibiting caspase function with a pancaspase inhibitor. Apoptosis induced by camptothecin, a known caspase-3 activator, was used as a positive control.
Activation of PARP-1 has been implicated in caspase independent apoptosis. It was investigated whether E2F1 induced cell death involved PARP-1 activation. Poly ADP ribosylation (PAR), the functional indicator of PARP-1 activation, was detected by immunoblot with a specific anti-PAR antibody. […] Immunocytochemical staining of PAR further conformed the activity of PARP-1 (FIG. 11B). The nuclear PAR stain was increased after expression of E2F1 for 24 h and reached a plateau at 48 h. To determine if poly ADP ribosylation plays a causal role in E2F1 induced apoptosis, 3′-aminobenzamide (3′-AB), a universal inhibitor of PARP activity, was used.
Protein poly ADP ribosylation is catalysed by members of the poly (ADP-ribose) polymerase family that consists of 18 genes (Amé, J. C., et al., Bioessays 26:882-93 (2004)). The PARP-1 protein is the dominant member in most cells, which contributes the majority of overall poly ADP ribosylation induced by DNA damage (Davidovic, L. et al., Exp Cell Res 268:7-13 (2001)). To distinguish which member of the PARP family was involved in E2F1-induced apoptosis, siRNA technology was utilized to reduce PARP-1 protein levels. A chemically synthesized PARP-1 siRNA pool was electroporated into the DLD1-E2F1 inducible cell line. The PARP-1 protein began to decrease at day 2 and reached the lowest levels at day 4 and gradually recovered from day 6 as shown by western blot (FIG. 12A) and immunocytochemical staining. […] The E2F1-induced apoptosis was compromised following PARP-1 knockdown (P<0.001) (FIG. 12C).

For data set [2], the system named is HeLa cells. Briefly: MTT cell death assay, HeLa cells. It counts as cell-based. Particulars: for cell survival percentage: MTT (FIG. 1). The protocol: (§1) Cell death was determined by the 3-(4,5-dimethylthiazol-2-yl)-2,5-diphenyl tetrazolium bromide (MTT) assay or by trypan blue exclusion, as indicated. Briefly, HeLa and DLD1 cells were plated in a 96-well plate at 10,000 cells per well, cultured for 24 h in complete growth medium, then treated with various concentrations of β-lapachone for 4 h MTT was added to a final concentration of 0.5 mg/ml, and incubated for 1 hr, followed by assessment of cell viability using a microplate reader at 570 nm. For the trypan blue exclusion assay, HeLa and DLD1 cells were plated in 6-well plate and treated in the same way. They were harvested, and trypan blue dye solution was added to the cell suspension. Total cell counts and viable cell numbers were determined with a hemacytometer. For the PARP inhibition study, cells were […] for 1 h with the PARP inhibitor 3-aminobenzamide (3-AB, 5 mM), and then co-treated with inhibitor and β-lapachone for a further 4 h, followed by MTT assay or trypan blue staining. […] HeLa and DLD1 cells were plated in 96-well plates at 10,000 cells per well, cultured for 24 h in complete growth medium, pretreated with PARP inhibitor 3-AB […] or equal volume of DMSO for 1 h, and then exposed to β-lapachone at various concentrations for a further 4 h, followed by MTT assay.

The next data set deals with DLD1 cells. Briefly: MTT cell death assay, DLD1 cells. It counts as cell-based, human. Here is the method:
as §1
In general terms: Tetrazolium assays rely on reduction of a dye to a coloured formazan, in cell work by metabolically active cells.

Data set [3] relates to HeLa cells. Nature of the data set: NAD depletion assay. It counts as cell-based. The protocol:
HeLa cells were plated at 6×10^5 cells per well (35 mm, 6-well dishes). Eighteen hours after plating, cells were treated with β-lapachone (0, 2, 4 or 8 μM) in growth media (DMEM; 10% FBS) for the time periods indicated (15, 30 and 60 minutes). Following drug treatment cells were washed 2× with PBS. Cells were subsequently lysed in 200 μL NAD lysis buffer (61 mM glycyl-glycine, pH 7.4, 0.1% Triton-X-100). Cellular lysates were clarified by centrifugation at 16,000 g for 10 minutes. Aliquots of clarified lysates were transferred to 96-well plates (25 μL samples in triplicate) for to determine NAD^+ concentrations.
Determination of lysate NAD levels was performed using a modification of the NAD recycling assay described by Ying et al. (PNAS, 98(21):12227-32 (2001)). Briefly, the NAD reaction mixture consisted of 0.1 mM 3-[4,5-dimethylthiazol-2-yl]-2,5-diphenyl-tetrazolium bromide (MTT), 0.9 mM phenazine methosulfate, 13 units/ml alcohol dehydrogenase (from yeast extract, Sigma), 100 mM nicotinamide, and 5.7% ethanol in 61 mM Gly-Gly buffer (pH 7.4). To each aliquot of cellular lysate, 200 μL of reaction mixture was added. Absorbance readings (560 nm) were taken every minute for five minutes. Results were calibrated with NAD^+ standards and were subsequently normalized to protein concentration as determined using the Bio-Rad protein Assay.

The subject of data set [4] is PARP. Nature of the data set: Immunofluorescence analysis with anti-poly(ADP-ribose) antibody, HeLa cells. It counts as cell-based.
Method: HeLa and DLD1 cells were grown on coverslips for PARP activity experiments. Cells treated with 4 uM β-lapachone at different time points and fixed with methanol acetone (70/30, v/v) for 10 min at −20° C. Coverslips were air dried and rehydrated in PBS at room temperature for 10 min. Samples were than incubated in blocking buffer (PBS, 5% FBS) for 10 minutes at room temperature in a humid chamber. Cells were incubated overnight at 4° C. with monoclonal anti-poly(ADP-ribose) antibody (I OH, 1:100 dilution). After washing, the cells were incubated for 1 hr at room temperature with a 1:500 dilution of FITC conjugated anti-mouse antibody. For the PARP inhibition study, cells pre-teated for 1 h with the PARP inhibitor 3-aminobenzamide (3-AB, 5 mM), and then co-treated with inhibitor and β-lapachone for a further 10 minutes followed by immunofluorescence staining. Immunofluorescence was evaluated using an immunofluorescence microscope equipped with a CCD camera.
HeLa cells were grown on coverslips for 24 h, then treated with 4 μM β-lapachone at different time points and fixed with methanol acetone (70/30, v/v) for 10 min. Samples were incubated in blocking buffer (5% FBS in PBS) for 10 minutes at room temperature in a humid chamber. […] Immunofluorescence was evaluated using an immunofluorescence microscope equipped with a CCD camera. […]
The test system of a further data set is MCF7 cells. Briefly: NAD+ supplementation experiment, MTT assay. It counts as cell-based. Particulars: Homo sapiens, 4 h, MTT (FIG. 8), read-out: IC50 (cytotoxicity). Here is the method: For NAD^+ supplementation experiment, MCF7 cells were plated in 96-well plates at a density of 10,000 cells per well. Sixteen to eighteen hours later cells were pre-treated with […] 3-aminobenzamide, 10 mM NAD+, or vehicle control (all treatments in formulated in growth media: DMEM with 10% fetal bovine serum) for 1 hour at 37° C. Following this incubation, cells (under each pre-incubation treatment) were treated with β-lapachone at indicated concentrations for 4 hours at 37° C. An MTT assay was then performed as described above.

Data set [5] concerns PARP. Briefly: PARP activity assay in cell lysate. It counts as biochemical, human. Conditions: various β-lapachone concentrations vs 0 μM control, dose-dependent (FIG. 9). Here is the method: A cell extract was generated by scraping a 15 cm (˜80% confluent) dish of MCF7 cells into 1.5 ml of PARP buffer (50 mM Tris pH 8.0, 25 mM MgCl2) containing protease inhibitors. The cell suspension was sonicated at 30% amplitude with 3×10 second bursts on ice. The cell lysate was subsequently clarified by centrifugation at 16,000 g for 10 minutes at 4° C. Any remaining insoluble material was removed by passing the clarified lysate through a 5 ml syringe containing a cotton pad-filter. The protein concentration of extracts was typically between […]. PARP in vitro activity was determined using a modification of the PARP in vitro assay from TREVIGEN™. Reactions were comprised of the following: ˜60 μg of cellular protein, 100 μM NAD, 10 μg of histone H1, β-lapachone (at various concentrations) or DMSO control, 25 mM MgCl2, 50 mM Tris-Cl pH 8.0. Reactions were incubated for 10 minutes at room temperature and terminated by the addition of 900 μL of cold 25% trichloroacetic acid. Terminated reactions were incubated on ice for 10 minutes. TCA-precipitated proteins were isolated by passing reaction over glass-fiber filters under vacuum. Filters were subsequently washed three times with 5 ml of 5% TCA followed by 2 washes with cold ethanol. […] The amount of ^32P labeled NAD incorporated into polyribosylated proteins was then determined by liquid scintillation measurement.

Read-outs that look alike come from different tables or passages of the source.

For Z-VAD, the “cytotoxic effects of addition alone” value in data set [1] (Z-VAD alone) was “no cytotoxic effects”. In data set [1] (Z-VAD at 50 μM (FIG. 10F)), the “effect on camptothecin-induced apoptosis” value was “blocked”. The “effect on E2F1-induced apoptosis” value in data set [1] (Z-VAD at 50 μM, tetracycline induction (FIG. 10F)) is on record as “failed to block”.
Take `NC(=O)c1cccc(N)c1` [3-aminobenzamide]: the “effect on β-lapachone-induced cell death” value in the data set on HeLa cells [2] (HeLa cells, 3-AB pretreatment 1 h, MTT) is listed as “blocked”; with DLD1 cells (3-AB pretreatment 1 h, MTT), “blocked”. In addition, the “effect on β-lapachone-mediated NAD+ depletion” value in the data set on HeLa cells [3] (data not shown) is given as “inhibited”. Moreover, in the data set on PARP [4] (5 mM 3-AB 1 h, then 4 μM β-lapachone 10 minutes (FIG. 5)), the “effect on β-lapachone induced activation of PARP” value is on record as “blocked”. Besides, the “effect on apoptosis of addition alone” value in data set [1] (3′-AB alone vs control group) was “no effect on apoptosis”. The inhibition (commonly how much of the control response was suppressed) at 5000 µM in data set [1] (Homo sapiens, DLD-1, read-out: inhibition of E2F1 induced apoptosis) is greater than 70%.
As for `CC1(C)CCC2=C(O1)c1ccccc1C(=O)C2=O` [β-lapachone, 3,4-dihydro-2,2-dimethyl-2H-naphtho [1,2-b]pyran-5,6-dione], the cell survival percentage is listed as roughly 60% in the data set with HeLa cells [2] (HeLa cells, pretreated 1 h with PARP inhibitor 3-AB, then β-lapachone for 4 h); “approximately 5%” in the data set with HeLa cells [2] (HeLa cells, β-lapachone for 4 h without 3-AB); “approximately 75%” with DLD1 cells (pretreated 1 h with PARP inhibitor 3-AB, then β-lapachone for 4 h, MTT (FIG. 1)). Moreover, the IC50 (commonly the point on the concentration scale where inhibition reaches its midpoint) in the data set with HeLa cells [2] (Homo sapiens, HeLa, cytotoxicity IC50 quoted in the NAD+ depletion example, cell line not given) is roughly 2.8 µM; with MCF7 cells (control (no NAD+ supplementation)), roughly 2.7 µM; in the data set with MCF7 cells (exogenous NAD+ supplementation (10 mM, 1 h pre-treatment)), roughly 6.6 µM. Also, the “cellular NAD+ levels” value with HeLa cells [3] (8 μM β-lapachone, within 15 minutes (FIG. 7)) is reported as ~20 % of control; in the data set on HeLa cells [3] (β-lapachone concentrations in excess of the IC50, by 30 minutes (FIG. 7)), “less than 50 % of control”. The “activation of PARP (anti-poly(ADP-ribose) fluorescence)” value in the data set on PARP [4] (4 μM β-lapachone, 5 minutes to 2 hours (FIG. 4)) is “increases fluorescence”. The “PARP activity in cellular lysate” value in the data set with PARP [5] was “induces enhancement of PARP activity above the basal level”.
